Patent US12528790B2, “Amide derivative having antiviral activity” (Shionogi & Co., Ltd., priority 2020, dated 2026)
Like-named read-outs stand apart in the source and are kept apart here. Values belong to the molecule of their own block, whether it stands above or below them.

System: RSV A2 strain
Assay: In vitro CPE (CytoPathic Effect) inhibition effect evaluation test, RSV type A
Assay type: cell-based
Conditions: human respiratory syncytial virus
Method in brief: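 HEp-2 cells (2.4×10^5 cells/mL, 2% FBS E-MEM) were infected with RSV alongside 3-fold compound dilutions and incubated at 37 °C, 4 days for A2 and 5 days for B Wash/18537. Viable cells quantified by CellTiter-Glo 2.0 luminescence; EC50 by nonlinear regression as 50% CPE inhibition.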

[1] = inhibitory effect against RSV type A (RSV A2 strain), HEp-2 cells, CPE inhibition, read-out: EC50

SMILES: NC(=O)c1cc(C(=O)NC2(C(=O)O)C3CC4CC(C3)CC2C4)c(C(F)(F)F)nc1N1CCc2cc(OCCC3CCOCC3)ccc21 (stereo not shown) [Compound I-156]
EC50 [1]: 100 to 5000 nM

SMILES: O=C(NC1(C(=O)O)C2CC3CC(C2)CC1C3)c1cnc(N2CCc3cc(OCCC4CCOCC4)ccc32)nc1C(F)F (stereo not shown) [Compound I-157]
EC50 [1]: < 10 nM

SMILES: CC(F)(F)c1nc(N2CCc3cc(OCCC4CCOCC4)ccc32)ncc1C(=O)NC1(C(=O)O)C2CC3CC(C2)CC1C3 (stereo not shown) [Compound I-161]
EC50 [1]: < 10 nM

SMILES: O=C(N[C@@]1(C(=O)O)[C@@H]2C[C@@H]3C[C@H]1C[C@@](F)(C3)C2)c1cnc(N2CCc3cc(OCCC4CCOCC4)ccc32)nc1C(F)(F)F [Compound I-163]
EC50 [1]: < 10 nM

SMILES: NC(=O)[C@@]1(NC(=O)c2cnc(N3CC4(CCOCC4)c4cc(OC5CCN(c6ncccn6)CC5)ccc43)nc2C(F)(F)F)[C@@H]2CC3C[C@H]1C[C@@](F)(C3)C2 [Compound I-166]
EC50 [1]: < 10 nM

SMILES: NCCc1nc(N2CCc3cc(OCCC4CCOCC4)ccc32)nc(C(F)(F)F)c1C(=O)NC1(C(=O)O)C2CC3CC(C2)CC1C3 (stereo not shown) [Compound I-167]
EC50 [1]: 100 to 5000 nM

SMILES: NC(=O)C1(NC(=O)c2cnc(N3CC4(CCOCC4)c4cc(OCCN5CCOCC5)ccc43)nc2C(F)(F)F)C2CC3CC(C2)CC1C3 (stereo not shown) [Compound I-170]
EC50 [1]: < 10 nM

SMILES: NC(=O)C1(NC(=O)c2cnc(N3CC4(CCNCC4)c4cc(OCCC5CCOCC5)ccc43)nc2C(F)(F)F)C2CC3CC(C2)CC1C3 (stereo not shown) [Compound I-171]
EC50 (HEp-2): 10 to 100 nM

SMILES: Cc1ccc2c(c1)C1(CCNCC1)CN2c1ncc(C(=O)NC2(C(N)=O)C3CC4CC(C3)CC2C4)c(C(F)(F)F)n1 (stereo not shown) [Compound I-172]
EC50 [1]: 100 to 5000 nM

SMILES: CCC(F)(F)c1nc(N2CCc3cc(OCCC4CCOCC4)ccc32)ncc1C(=O)NC1(C(=O)O)C2CC3CC(C2)CC1C3 (stereo not shown) [Compound I-178]
EC50 [1]: 10 to 100 nM

SMILES: CC(C)(F)c1nc(N2CCc3cc(OCCC4CCOCC4)ccc32)ncc1C(=O)NC1(C(=O)O)C2CC3CC(C2)CC1C3 (stereo not shown) [Compound I-179]
EC50 [1]: < 10 nM

SMILES: O=C(NC1(C(=O)O)C2CC3CC(C2)CC1C3)c1cnc(N2CCc3cc(OCCC4CCOCC4)ccc32)nc1C(F)(F)C(F)(F)F (stereo not shown) [Compound I-180]
EC50 [1]: < 10 nM

SMILES: Cc1ccc2c(c1)C1(CCN(C3COC3)CC1)CN2c1ncc(C(=O)NC2(C(N)=O)C3CC4CC(C3)CC2C4)c(C(F)(F)F)n1 (stereo not shown) [Compound I-181]
EC50 (HEp-2): 10 to 100 nM

SMILES: COc1ccc2c(c1)C1(CCOCC1)CN2c1nc(CCCO)c(C(=O)NC2(C(=O)O)C3CC4CC(C3)CC2C4)c(C(F)(F)F)n1 (stereo not shown) [Compound I-187]
EC50 [1]: 10 to 100 nM

SMILES: O=C(NC1(C(=O)O)C2CC3CC(C2)CC1C3)c1cnc(N2CC3(CCOCC3)c3cc(O[C@H]4CC[C@@H](n5cccn5)CC4)ccc32)nc1C(F)(F)F (stereo partly shown) [Compound I-192]
EC50 [1]: < 10 nM

SMILES: O=C(NC1(C(=O)O)C2CC3CC(C2)CC1C3)c1cnc(N2CC3(CCOCC3)c3cc(O)ccc32)nc1C(F)(F)F (stereo not shown) [Compound I-201]
EC50 [1]: 10 to 100 nM

SMILES: Cn1ccnc1N1CCC(Oc2ccc3c(c2)CCN3c2ncc(C(=O)NC3(C(=O)O)CCCCC3)c(C(F)(F)F)n2)CC1 [Compound I-207]
EC50 [1]: 10 to 100 nM

SMILES: CC(C)N1CCC(Oc2ccc3c(c2)C2(CCOCC2)CN3c2ncc(C(=O)NC3(C(=O)O)C4CC5CC(C4)CC3C5)c(C(F)(F)F)n2)CC1 (stereo not shown) [Compound I-209]
EC50 [1]: < 10 nM

SMILES: O=C(NC1(C(=O)O)C2CC3CC(C2)CC1C3)c1cnc(N2CC3(CCOCC3)c3cc(O[C@@H]4C[C@H]5CC[C@@H](C4)N5)ccc32)nc1C(F)(F)F (stereo partly shown) [Compound I-212]
EC50 (HEp-2): 100 to 5000 nM

SMILES: O=C(NC1(C(=O)O)C2CC3CC(C2)CC1C3)c1cnc(N2CC3(CCOCC3)c3cc(OC4CN(C(=O)OCc5ccccc5)C4)ccc32)nc1C(F)(F)F (stereo not shown) [Compound I-224]
EC50 [1]: < 10 nM

SMILES: O=C(NC1(C(=O)O)C2CC3CC(C2)CC1C3)c1cnc(-c2cn(C3CCC(F)(F)CC3)c3ccc(OC4CCN(C5COC5)CC4)cc23)nc1C(F)(F)F (stereo not shown) [Compound I-225]
EC50 [1]: 10 to 100 nM

SMILES: O=C(NC1(C(=O)O)C2CC3CC(C2)CC1C3)c1cnc(N2CC3(CCOCC3)c3cc(OC4CN(C5COC5)C4)ccc32)nc1C(F)(F)F (stereo not shown) [Compound I-226]
EC50 [1]: < 10 nM

SMILES: O=C(NC1(C(=O)O)C2CC3CC(C2)CC1C3)c1cnc(N2CC3(CCOCC3)c3cc(OC4CN(C(=O)C5COC5)C4)ccc32)nc1C(F)(F)F (stereo not shown) [Compound I-230]
EC50 [1]: < 10 nM

SMILES: Cn1cc(CN2CC(Oc3ccc4c(c3)C3(CCOCC3)CN4c3ncc(C(=O)NC4(C(=O)O)C5CC6CC(C5)CC4C6)c(C(F)(F)F)n3)C2)cn1 (stereo not shown) [Compound I-231]
EC50 [1]: < 10 nM

SMILES: O=C(NC1(C(=O)O)C2CC3CC(C2)CC1C3)c1cnc(-c2cn(C3CCC(F)(F)CC3)c3cc(OC4CCN(C5CCOCC5)CC4)ccc23)nc1C(F)(F)F (stereo not shown) [Compound I-242]
EC50 [1]: < 10 nM

More lines, now with the values ahead:

EC50 [1]: < 10 nM
SMILES: O=C(NC1(C(=O)O)C2CC3CC(C2)CC1C3)c1ccc(-c2cn(CC3CC3)c3cc(OC4CCN(c5ncccn5)CC4)ccc23)nc1C(F)(F)F (stereo not shown) [Compound I-153]

EC50 [1]: < 10 nM
SMILES: O=C(NC1(C(=O)O)C2CC3CC(C2)CC1C3)c1ccc(-c2cn(C3CCC3)c3cc(OC4CCN(c5ncccn5)CC4)ccc23)nc1C(F)(F)F (stereo not shown) [Compound I-154]

EC50 [1]: < 10 nM
SMILES: O=C(N[C@@]1(C(=O)O)[C@@H]2C[C@@H]3C[C@H]1C[C@@](F)(C3)C2)c1cnc(N2CC3(CCOCC3)c3cc(OC4CCN(c5ncccn5)CC4)ccc32)nc1C(F)(F)F [Compound I-164]

EC50 [1]: < 10 nM
SMILES: CN(C)CCc1nc(N2CC3(CCOCC3)c3cc(OC4CCN(c5ncccn5)CC4)ccc32)nc(C(F)(F)F)c1C(=O)NC1(C(=O)O)C2CC3CC(C2)CC1C3 (stereo not shown) [Compound I-168]

EC50 [1]: < 10 nM
SMILES: NC(=O)C1(NC(=O)c2ccc(N3CC4(CCOCC4)c4cc(OC5CCN(c6ncccn6)CC5)ccc43)nc2C(F)(F)F)C2CC3CC(C2)CC1C3 (stereo not shown) [Compound I-169]

EC50 [1]: 10 to 100 nM
SMILES: CNC(=O)C1(NC(=O)c2cnc(N3CC4(CCOCC4)c4cc(OC5CCN(c6ncccn6)CC5)ccc43)nc2C(F)(F)F)C2CC3CC(C2)CC1C3 (stereo not shown) [Compound I-173]

EC50 [1]: < 10 nM
SMILES: CN(C)C(=O)C1(NC(=O)c2cnc(N3CC4(CCOCC4)c4cc(OC5CCN(c6ncccn6)CC5)ccc43)nc2C(F)(F)F)C2CC3CC(C2)CC1C3 (stereo not shown) [Compound I-174]

EC50 [1]: < 10 nM
SMILES: N#C[C@H]1CC[C@H](n2cc(-c3ccc(C(=O)NC4(C(=O)O)C5CC6CC(C5)CC4C6)c(C(F)(F)F)n3)c3ccc(OC4CCN(c5ncccn5)CC4)cc32)CC1 (stereo partly shown) [Compound I-185]

EC50 [1]: < 10 nM
SMILES: N#C[C@H]1CC[C@@H](n2cc(-c3ccc(C(=O)NC4(C(=O)O)C5CC6CC(C5)CC4C6)c(C(F)(F)F)n3)c3ccc(OC4CCN(c5ncccn5)CC4)cc32)CC1 (stereo partly shown) [Compound I-186]

EC50 [1]: < 10 nM
SMILES: O=C(NC1(C(=O)O)C2CC3CC(C2)CC1C3)c1ccc(-c2cn([C@H]3CC[C@@H](OCc4ccccc4)CC3)c3cc(OC4CCN(c5ncccn5)CC4)ccc23)nc1C(F)(F)F (stereo partly shown) [Compound I-188]

EC50 [1]: < 10 nM
SMILES: O=C(NC1(C(=O)O)C2CC3CC(C2)CC1C3)c1ccc(-c2cn([C@H]3CC[C@@H](O)CC3)c3cc(OC4CCN(c5ncccn5)CC4)ccc23)nc1C(F)(F)F (stereo partly shown) [Compound I-194]

EC50 [1]: < 10 nM
SMILES: O=C(NC1(C(=O)O)C2CC3CC(C2)CC1C3)c1ccc(-c2cn([C@H]3CC[C@H](O)CC3)c3cc(OC4CCN(c5ncccn5)CC4)ccc23)nc1C(F)(F)F (stereo partly shown) [Compound I-195]

EC50 [1]: < 10 nM
SMILES: O=C(NC1(C(=O)O)C2CC3CC(C2)CC1C3)c1ccc(-c2cn(-c3cncnc3)c3cc(OC4CCN(c5ncccn5)CC4)ccc23)nc1C(F)(F)F (stereo not shown) [Compound I-196]

EC50 [1]: < 10 nM
SMILES: O=C(NC1(C(=O)O)C2CC3CC(C2)CC1C3)c1ccc(-c2cn(-c3ccncn3)c3cc(OC4CCN(c5ncccn5)CC4)ccc23)nc1C(F)(F)F (stereo not shown) [Compound I-197]

EC50 [1]: < 10 nM
SMILES: O=C(NC1(C(=O)O)C2CC3CC(C2)CC1C3)c1ccc(-c2cn(-c3cnccn3)c3cc(OC4CCN(c5ncccn5)CC4)ccc23)nc1C(F)(F)F (stereo not shown) [Compound I-198]

EC50 [1]: < 10 nM
SMILES: O=C(NC1(C(=O)O)C2CC3CC(C2)CC1C3)c1ccc(-c2cn(CCO)c3cc(OC4CCN(c5ncccn5)CC4)ccc23)nc1C(F)(F)F (stereo not shown) [Compound I-200]

EC50 [1]: < 10 nM
SMILES: O=C(NC1(C(=O)O)C2CC3CC(C2)CC1C3)c1cnc(N2CC3(CCOCC3)c3cc(OC4CCN(c5ncccn5)CC4)ccc32)nc1C(F)(F)CO (stereo not shown) [Compound I-205]

EC50 [1]: < 10 nM
SMILES: O=C(O)/C=C/C1(NC(=O)c2cnc(N3CC4(CCOCC4)c4cc(OC5CCN(c6ncccn6)CC5)ccc43)nc2C(F)(F)F)C2CC3CC(C2)CC1C3 (stereo not shown) [Compound I-208]

EC50 [1]: < 10 nM
SMILES: O=C(NC1(C(=O)O)C2CC3CC(C2)CC1C3)c1cnc(N2CCc3cc(CN4CCN(c5ncccn5)CC4)ccc32)nc1C(F)(F)F (stereo not shown) [Compound I-213]

EC50 [1]: < 10 nM
SMILES: N#C[C@]12C[C@@H]3C[C@H](C1)[C@@](NC(=O)c1cnc(N4CC5(CCOCC5)c5cc(OC6CCN(c7ncccn7)CC6)ccc54)nc1C(F)(F)F)(C(=O)O)[C@@H](C3)C2 [Compound I-219]

EC50 [1]: < 10 nM
SMILES: O=C(NC1(C(=O)O)C2CC3CC(C2)CC1C3)c1cnc(N2CCc3cc(OC4CCN(C5COC5)CC4)ccc32)nc1C(F)(F)F (stereo not shown) [Compound I-220]

EC50 [1]: < 10 nM
SMILES: O=C(NC1(C(=O)O)C2CC3CC(C2)CC1C3)c1ccc(-c2cn(C3CCOCC3)c3cc(OC4CCN(c5ncccn5)CC4)c(F)cc23)nc1C(F)(F)F (stereo not shown) [Compound I-222]

EC50 [1]: < 10 nM
SMILES: Cc1nc(N2CC3(CCOCC3)c3cc(OC4CCN(c5ncccn5)CC4)ccc32)nc(C(F)(F)F)c1C(=O)NC1(C(=O)O)C2CC3CC(C2)CC1C3 (stereo not shown) [Compound I-229]

EC50 [1]: < 10 nM
SMILES: O=C(NC1(C(=O)O)C2CC3CC(C2)CC1C3)c1cnc(-c2cn(C3CCC(F)(F)CC3)c3ccc(O[C@H]4CC[C@H](n5cccn5)CC4)cc23)nc1C(F)(F)F (stereo partly shown) [Compound I-232]

EC50 [1]: < 10 nM
SMILES: O=C(NC1(C(=O)O)C2CC3CC(C2)CC1C3)c1cnc(-c2cn(C3CCC(F)(F)CC3)c3cc(OC4CCN(c5nccs5)CC4)ccc23)nc1C(F)(F)F (stereo not shown) [Compound I-236]

EC50 [1]: < 10 nM
SMILES: O=C(NC1(C(=O)O)C2CC3CC(C2)CC1C3)c1ccc(-c2cn(C3CCC(F)(F)CC3)c3cc(OC4CCN(C5COC5)CC4)ccc23)nc1C(F)(F)F (stereo not shown) [Compound I-240]

EC50 [1]: < 10 nM
SMILES: O=C(NC1(C(=O)O)C2CC3CC(C2)CC1C3)c1cnc(-c2cn(C3CCC(F)(F)CC3)c3cc(OC4CCN(c5ncccc5F)CC4)ccc23)nc1C(F)(F)F (stereo not shown) [Compound I-241]
